Measurements as given in patent US20050283841A1, “Inhibition of protein kinase C-related kinase (PRK) as a treatment for cardiac hypertrophy and heart failure” (priority 2004, published 2005).

Tests used:
PRK [1] = conditions: Kuwahara et al., 1999; Kondoh et al., 1997; not specific for PRK, also block ROCK; cited from earlier work
[2] = Isoproterenol infusion model of pathological cardiac hypertrophy, heart weight to body weight ratio; assay type: in vivo, Sprague-Dawley rats; conditions: isoproterenol 4.8 mg/kg/d, subcutaneous osmotic minipump, 4 days; data not shown
Description: (§1) For isoproterenol infusion, nine to ten-week-old male Sprague-Dawley rats were anesthetized via passive inhalation of 2.0% isoflurane. When a level of surgical anesthesia was reached, an osmotic minipump (Alzet model 2001, Alza Corp., Palo Alto Calif.) containing either vehicle (0.1% ascorbic acid in 0.9% NaCl), or isoproterenol (4.8 mg/kg/d) was subcutaneously implanted into the back between the scapulae followed by closure with 3-0 silk sutures. After 4 days of recovery, animals were sacrificed and left ventricular tissue processed for Western blot analysis as described below. Average heart weight to body weight ratios in isoproterenol versus vehicle-infused rats increased 48% (data not shown).

PRK [3] = test: Western blot analysis of PRK phosphorylation status in left ventricular tissue after isoproterenol infusion; assay type: in vivo; conditions: rat, 4 days of isoproterenol infusion compared to control saline infusion; anti-phospho-PRK Western blot; *P<0.05
Description: as §1
Immunoblotting analyses. […] Protein concentration was determined by BCA assay (Pierce), and 20 μg of total protein was resolved by SDS-polyacrylamide gel electrophoresis (PAGE) with gradient gels (4 to 20% polyacrylamide; Invitrogen). […] Film images were then scanned and quantified using a digital image analysis system (Alpha Innotech).
PRK phosphorylation is increased with pathological cardiac hypertrophy in vivo. […] PRK phosphorylation is readily detected by Western analysis employing anti-phospho-PRK antibodies.

| Structure (SMILES) | PRK inhibition (known inhibitor) (PRK [1]) | Average heart weight to body weight ratios, increase versus vehicle-infused rats [2] | PRK phosphorylation (PRK [3]) |
| --- | --- | --- | --- |
| O=S(=O)(c1cccc2cnccc12)N1CCCNCC1 [Fasudil] | characterized as PRK inhibitors |  |  |
| C[C@@H](N)[C@H]1CC[C@H](C(=O)Nc2ccncc2)CC1 [Y27632] | characterized as PRK inhibitors |  |  |
| CC(C)NCC(O)c1ccc(O)c(O)c1 (stereo not shown) [isoproterenol] |  | 48% | increased |
